PMC9138991, “Effect of Trimethine Cyanine Dye- and Folate-Conjugation on the In Vitro Biological Activity of Proapoptotic Peptides” (Biomolecules, 2022)
Where a SMILES comes first, the peptide text is derived from it. Side-chain parts run from the residue outwards. [ ]: non-standard residue; d: D form. The star is where a group is joined. X1 = CN1/C(=C\C=C\C2=[N+](CCCCCC(=O)*)c3ccccc3C2(C)C)C(C)(C)c2ccccc21; Pteroyl = Nc1nc2ncc(CNc3ccc(C(=O)*)cc3)nc2c(=O)[nH]1; Cha = N[C@@H](CC1CCCCC1)C(=O)O; dCha = N[C@H](CC1CCCCC1)C(=O)O

Experiments:
Format in all cases: cell-based, human
[1] = test system: KB cells; assay: Cell viability assay (CellTiter-Blue), KB cells; settings: 7 × 10^3 cells per well, folic acid-depleted RPMI-1640 + 10% FBS, 1% DMSO, 24 h at 37 °C, then CellTiter-Blue 4 h, three biological replicates fitted in Origin, standard error in brackets
Method: (§1) KB and MCF7 cells were kindly gifted by Prof. Arwyn T. Jones (Cardiff University), HEK293 cells were purchased from Public Health England, and SK-OV-3 cells were purchased from National Collection of Authenticated Cell Cultures (https://cell-bank.org.cn/). Cells were routinely tested for mycoplasma infection. KB and SK-OV-3 cells were maintained in T75 flasks at 37 °C in a 5% CO2 atmosphere in folic acid-depleted Roswell Park Memorial Institute (RPMI)-1640 medium supplemented with 10% (v/v) fetal bovine serum (FBS). MCF7 and HEK293 cells were maintained in T75 flasks at 37 °C in a 5% CO2 atmosphere in Dulbecco’s Modified Eagle’s medium (DMEM) supplemented with 10% (v/v) FBS. Cells were maintained at a sub-confluent monolayer and split at 80–85% confluency. For splitting, cells were washed with PBS, trypsinized in 1 mL of trypsin, and 200 µL of the 1000 µL trypsin cell suspension was re-suspended in 12 mL fresh DMEM containing 10% (v/v) FBS in a new T75 flask. KB and SK-OV-3 cells were used for biological experiments after being maintained for at least 10 days in folic acid-depleted RPMI-1640 medium.
(§2) SK-OV-3, MCF7, and HEK293 cells were seeded at a density of 2 × 10^4 cells per well in a Nunc™ MicroWell™ 96-well plate and grown at 37 °C in a 5% CO2 atmosphere in DMEM supplemented with 10% (v/v) FBS for 24 h. KB cells were seeded at a density of 7 × 10^3 cells per well in a 96-well plate and grown at 37 °C in a 5% CO2 atmosphere in folic acid-depleted RPMI-1640 medium supplemented with 10% (v/v) FBS for 24 h. Stock solutions of compounds 2–6 and 11–13 were obtained by dissolving the compounds in sterile deionized water. Compounds 1, and 7–10 were dissolved in pure DMSO. The stock solutions were diluted into the proper medium (according to the cell line tested) supplemented with 10% FBS to the appropriate concentration, and cells in each well were incubated with 100 µL of the solution. The solutions in each well were then adjusted to a concentration of 1% (v/v) DMSO. After 24 h at 37 °C, 20 µL of CellTiter-Blue™ was added to each well. The plate was incubated for another 4 h at 37 °C before analysis on a Perkin Elmer Victor X plate reader (excitation 531 nm; emission 595 nm). Each data point was calculated from a minimum of nine values resulting from three biological replicates (i.e., cells split from three different passages); each biological replicate is calculated from three technical replicates (i.e., cells split from the same passage). Value from media-only with CellTiter-Blue™ was set at 0% viability. This value was then subtracted from the values from cell-only (i.e., non-treated) wells with CellTiter-Blue™ in each biological replicate and set as 100% viability. For treatments of Cy3-containing compounds, blanks were generated with cell-free wells containing the compounds incubated for 24 h before addition of CellTiter-Blue™. The fluorescent reading for these wells was deducted from the treatment readings. Dose-response fitting curves were generated using Origin, version 2019b, OriginLab Corporation, Northampton, MA, USA (Figures S21–S24, Supplementary Materials).
(§3) Comparison of cytotoxicity fitting curves was achieved by applying the extra sum-of-squares F test, performed using GraphPad Prism version 9 for Windows, GraphPad Software, La Jolla, California, USA (https://www.graphpad.com/). […] Statistical analysis on the flow cytometry data was achieved by applying the unpaired two-tailed t-test test, performed using GraphPad Prism version 9 for Windows, GraphPad Software, La Jolla California USA, USA (https://www.graphpad.com/).
(§4) Cytotoxicity of 1–13 was evaluated using the CellTiter-Blue assay on KB, MCF7, SK-OV-3, and HEK293 cells. KB cells are derived from human cervical cancer, while SK-OV-3 cells are derived from human ovarian cancer. […] This feature is of particular relevance in anticancer applications, as it can be exploited for selective targeting and delivery. […]

[2] = test system: SK-OV-3 cells; assay: Cell viability assay (CellTiter-Blue), SK-OV-3 cells; settings: 2 × 10^4 cells per well, medium + 10% FBS, 1% DMSO, 24 h at 37 °C, then CellTiter-Blue 4 h, three biological replicates fitted in Origin, standard error in brackets
Method: as §1, §2, §3, §4

[3] = test system: MCF7 cells; assay: Cell viability assay (CellTiter-Blue), MCF7 cells; settings: MCF7 cells, 2 × 10^4 cells per well, DMEM + 10% FBS, 1% DMSO, 24 h at 37 °C, then CellTiter-Blue 4 h; three biological replicates fitted in Origin, standard error in brackets
Method: as §1, §2, §3, §4

[4] = test system: HEK293 cells; assay: Cell viability assay (CellTiter-Blue), HEK293 cells; settings: 2 × 10^4 cells per well, DMEM + 10% FBS, 1% DMSO, 24 h at 37 °C, then CellTiter-Blue 4 h, three biological replicates fitted in Origin, standard error in brackets
Method: as §1, §2, §3, §4

[5] = test system: mitochondria of SK-OV-3 cells; assay: Confocal microscopy, colocalisation with MitoTracker Green FM, SK-OV-3 cells; settings: 10 µM conjugate, 10 min at 37 °C; for Pearson's correlation coefficient of MitoTracker Green and Cy3 fluorescence: imaged at 20X; for Pearson's correlation coefficient of MitoTracker Green FM and Cy3 fluorescence: imaged at 63X
Method: (§5) SK-OV-3 and MCF7 were seeded at a density of 1 × 10^6 cells per well in glass-bottom culture dishes and grown at 37 °C in a 5% CO2 atmosphere in medium supplemented with 10% (v/v) FBS for 24 h. Cells were washed once with the RPMI-1640 medium supplemented with 10% (v/v) FBS before staining. Compounds 1, 5–10 were diluted into the RPMI-1640 medium supplemented with 10% (v/v) FBS to 10 μM and then added to the culture dishes, respectively. After 10-min incubation at 37 °C, cells were washed with RPMI-1640 medium supplemented with 10% (v/v) FBS. Cells were then treated with 50 nM MitoTracker Green FM and 10 μg/mL Hoechst33258 pre-formulated with RPMI-1640 medium supplemented with 10% (v/v) FBS and then incubated for another 10 min at 37 °C before analysis on ZEISS LSM 900 with Airyscan 2. The results were analyzed using Image J software (Figure 3 and Figures S4–S7 in Supplementary Materials).
(§6) Figure 3 Confocal microscopy images of SK-OV-3 and MCF7 cells treated with Cy3-containing conjugates. Cells were treated with 10 µM of the indicated conjugate for 10 min at 37 °C, washed, stained with 50 nM MitoTracker Green FM and 10 μg/mL Hoechst33258 for 10 min at 37 °C, washed, and imaged at 63X. Pearson’s correlation coefficients of MitoTracker Green FM and Cy3 fluorescence for compounds 1, 5, 6, 7, 8, 9, and 10 in SK-OV-3 and MCF cells are 0.75/0.64, 0.73/0.81, 0.91/0.61, 0.78/0.63, 0.85/0.69, 0.43/0.82, and 0.78/0.60, respectively. Excitation wavelengths for Hoechst33258, MitoTracker Green FM and Cy3 were set as 405, 488, and 561 nm, respectively. Scale bars denote 25 μm. Additional images, including the results of Hoechst33258 staining, are shown in Figure S4 (SK-OV-3 at 20X), Figure S5 (SK-OV-3 at 63X), Figure S6 (MCF7 at 20X) and Figure S7 (MCF7 at 63X), Supplementary Materials.

[6] = test system: mitochondria of MCF7 cells; assay: Confocal microscopy, colocalisation with MitoTracker Green FM, MCF7 cells; settings: 10 µM conjugate, 10 min at 37 °C; for Pearson's correlation coefficient of MitoTracker Green and Cy3 fluorescence: imaged at 20X; for Pearson's correlation coefficient of MitoTracker Green FM and Cy3 fluorescence: imaged at 63X
Method: as §5, §6

SMILES	EC50 [1]	EC50 [2]	EC50 [3]	EC50 [4]	Pearson's correlation coefficient of MitoTracker Green and Cy3 fluorescence [5]	Pearson's correlation coefficient of MitoTracker Green FM and Cy3 fluorescence [5]	Pearson's correlation coefficient of MitoTracker Green and Cy3 fluorescence [6]	Pearson's correlation coefficient of MitoTracker Green FM and Cy3 fluorescence [6]
CC(C)C[C@@H](NC(=O)[C@@H](CCCCN)NC(=O)[C@H](CCCCNC(=O)[C@H](CCC(=O)O)NC(=O)c1ccc(NCc2cnc3nc(N)nc(O)c3n2)cc1)NC(=O)CCCCC[N+]1=C(/C=C/C=C2\N(C)c3ccccc3C2(C)C)C(C)(C)c2ccccc21)C(=O)N[C@H](C)C(=O)N[C@H](CCCCN)C(=O)N[C@H](CC(C)C)C(=O)N[C@H](C)C(=O)N[C@H](CCCCN)C(=O)N[C@H](CCCCN)C(=O)N[C@H](CC(C)C)C(=O)N[C@H](C)C(=O)N[C@H](CCCCN)C(=O)N[C@H](CC(C)C)C(=O)N[C@H](C)C(=O)N[C@H](CCCCN)C(N)=O [Compound 9]	22.4 µM	8 µM	13.2 µM	6.9 µM	0.52	0.43	0.61	0.82
C[C@@H](NC(=O)[C@H](CC1CCCCC1)NC(=O)[C@@H](CCCCN)NC(=O)[C@@H](C)NC(=O)[C@@H](CC1CCCCC1)NC(=O)[C@@H](CCCCN)NC(=O)[C@H](CCCCNC(=O)[C@H](CCC(=O)O)NC(=O)c1ccc(NCc2cnc3nc(N)nc(O)c3n2)cc1)NC(=O)CCCCC[N+]1=C(/C=C/C=C2\N(C)c3ccccc3C2(C)C)C(C)(C)c2ccccc21)C(=O)N[C@H](CCCCN)C(=O)N[C@H](CCCCN)C(=O)N[C@@H](CC1CCCCC1)C(=O)N[C@H](C)C(=O)N[C@H](CCCCN)C(=O)N[C@H](CC1CCCCC1)C(=O)N[C@H](C)C(=O)N[C@H](CCCCN)C(N)=O [Compound 10] (X1-K([Glu-Pteroyl])[dK][dCha][dA][dK][Cha][dA][dK][dK][Cha][dA][dK][dCha][dA][dK]-NH2)	3.4 µM	6 µM	6.9 µM	6.8 µM	0.79	0.78	0.68	0.60
CC(C)C[C@H](NC(=O)[C@H](CCCCN)NC(=O)CCCCC[N+]1=C(/C=C/C=C2\N(C)c3ccccc3C2(C)C)C(C)(C)c2ccccc21)C(=O)N[C@@H](C)C(=O)N[C@@H](CCCCN)C(=O)N[C@@H](CC(C)C)C(=O)N[C@@H](C)C(=O)N[C@@H](CCCCN)C(=O)N[C@@H](CCCCN)C(=O)N[C@@H](CC(C)C)C(=O)N[C@@H](C)C(=O)N[C@@H](CCCCN)C(=O)N[C@@H](CC(C)C)C(=O)N[C@@H](C)C(=O)N[C@@H](CCCCN)C(N)=O [Compound 5]	6.7 µM	11 µM	7.37 µM	44.3 µM	0.76	0.73	0.80	0.81
CC(C)C[C@@H](NC(=O)[C@@H](CCCCN)NC(=O)CCCCC[N+]1=C(/C=C/C=C2\N(C)c3ccccc3C2(C)C)C(C)(C)c2ccccc21)C(=O)N[C@H](C)C(=O)N[C@H](CCCCN)C(=O)N[C@H](CC(C)C)C(=O)N[C@H](C)C(=O)N[C@H](CCCCN)C(=O)N[C@H](CCCCN)C(=O)N[C@H](CC(C)C)C(=O)N[C@H](C)C(=O)N[C@H](CCCCN)C(=O)N[C@H](CC(C)C)C(=O)N[C@H](C)C(=O)N[C@H](CCCCN)C(N)=O [Compound 6]	3.5 µM	6.39 µM	5.7 µM	5.3 µM	0.74	0.91	0.81	0.61
CC(C)C[C@H](NC(=O)[C@H](CCCCN)NC(=O)[C@H](C)NC(=O)[C@H](CC(C)C)NC(=O)[C@H](CCCCN)NC(=O)[C@H](CCCCN)NC(=O)[C@H](C)NC(=O)[C@H](CC(C)C)NC(=O)[C@H](CCCCN)NC(=O)[C@H](C)NC(=O)[C@H](CC(C)C)NC(=O)[C@H](CCCCN)NC(=O)[C@H](CCCCNC(=O)[C@H](CCC(=O)O)NC(=O)c1ccc(NCc2cnc3nc(N)nc(O)c3n2)cc1)NC(=O)CCCCC[N+]1=C(/C=C/C=C2\N(C)c3ccccc3C2(C)C)C(C)(C)c2ccccc21)C(=O)N[C@@H](C)C(=O)N[C@@H](CCCCN)C(N)=O [Compound 8]	38.8 µM	8.8 µM	49.4 µM	35.6 µM	0.53	0.85	0.60	0.69
